This note sets out measurements from BindingDB's records for patent US10494376 (CTXT PTY. LTD., 2019).

As usually defined, the IC50 is the concentration needed to halve the response being measured. A higher IC50 goes with weaker potency in that assay.

The target in the test is Protein arginine N-methyltransferase 5 (Homo sapiens, UniProt O14744). The experiment in a line: Revised Biochemical Assay. On the procedure:
Compounds of the invention may be tested for in vitro activity in the following assay: A histone H4 derived peptide is used as substrate (amino acid sequence: […]N H2). Full-length PRMT5 enzyme (NCBI Reference sequence NP_006100.2) was co-expressed with His6-MEP50 in insect cells and purified via Nickel immobilized metal affinity and gel filtration chromatography (the enzyme).The 6 μL reactions are run in Greiner brand black 384-well low volume assay plates. All reactions contained assay buffer (phosphate buffered saline, 0.01% (v/v) Tween-20, 0.01% (w/v) albumin from chicken egg white, 1 mM Dithiothreitol, 1 μM peptide substrate, 1 μM S-Adenosyl methionine, and 15 ng/reaction enzyme, with the enzyme being omitted from negative control reactions. Compounds were added in a volume of 100 nL from dilution series prepared in DMSO, positive and negative control reactions receiving the same volume DMSO without compound. The plates were sealed with adhesive seals and incubated for 4 hours at 37 degree Celsius. Reaction progress was measured using the Transcreener EPIGEN methyltransferase assay (BellBrook Labs, Madison, Wis.) as recommended by the manufacturer. To each reaction 2 μL detection mix were added, containing coupling enzymes, fluorescence polarisation tracer, and AMP antibody. […]

Chain of Protein arginine N-methyltransferase 5 (O14744 whole entry): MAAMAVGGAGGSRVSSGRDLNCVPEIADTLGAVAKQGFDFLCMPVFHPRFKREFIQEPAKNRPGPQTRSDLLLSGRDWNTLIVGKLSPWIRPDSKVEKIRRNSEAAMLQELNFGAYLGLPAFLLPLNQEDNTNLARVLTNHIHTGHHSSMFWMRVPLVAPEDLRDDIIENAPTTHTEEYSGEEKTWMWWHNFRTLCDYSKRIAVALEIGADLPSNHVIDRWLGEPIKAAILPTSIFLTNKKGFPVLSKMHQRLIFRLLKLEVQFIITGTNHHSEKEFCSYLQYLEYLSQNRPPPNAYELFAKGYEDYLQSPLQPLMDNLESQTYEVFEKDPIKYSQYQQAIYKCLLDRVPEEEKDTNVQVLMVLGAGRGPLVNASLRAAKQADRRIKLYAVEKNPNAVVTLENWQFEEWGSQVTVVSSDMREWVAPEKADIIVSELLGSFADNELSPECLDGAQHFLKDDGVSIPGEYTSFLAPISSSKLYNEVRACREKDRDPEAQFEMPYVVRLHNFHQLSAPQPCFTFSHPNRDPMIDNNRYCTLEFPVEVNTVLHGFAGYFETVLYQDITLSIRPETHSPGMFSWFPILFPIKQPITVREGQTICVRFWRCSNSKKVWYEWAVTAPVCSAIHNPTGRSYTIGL

For `COC(=O)N1CCC(N(C)C(=O)c2ccc(C(=O)NC[C@@H](O)[C@@H]3Cc4ccccc4CN3)cc2)CC1` [US10494376, Example 20], the midpoint of inhibition, the IC50, lay at 11.7 µM.
